Data from PubChem BioAssay (NCI).
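In this assay, cells in 96-well plates receive the compound at five concentrations for 48 hours. Endpoints are linearly interpolated between the surrounding concentrations. Definition used: TGI = concentration required for complete inhibition of growth.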

Key:
Test in all cases: NCI tumour cell line growth inhibition, 48 h
[1] = test system: NCI-H226 lung
[2] = test system: CAKI-1 renal
[3] = test system: LOX IMVI melanoma
[4] = test system: OVCAR-3 ovarian
[5] = test system: SK-OV-3 ovarian
[6] = test system: COLO 205 colon
[7] = test system: TK-10 renal
[8] = test system: CCRF-CEM leukemia
[9] = test system: NCI-H460 lung
[10] = test system: UACC-257 melanoma
[11] = test system: HT29 colon
[12] = test system: DMS 114 small cell lung
[13] = test system: NCI-H23 lung
[14] = test system: HOP-62 NSCLC
[15] = test system: RPMI-8226 leukemia
[16] = test system: A549 NSCLC
[17] = test system: U251 CNS
[18] = test system: M14 melanoma
[19] = test system: SN12C renal
[20] = test system: ACHN renal
[21] = test system: UACC-62 melanoma
[22] = test system: HOP-92 NSCLC
[23] = test system: DLD-1 colon
[24] = test system: HCT-116 colon
[25] = test system: OVCAR-5 ovarian
[26] = test system: MALME-3M melanoma
[27] = test system: IGROV1 ovarian
[28] = test system: HL-60(TB) leukemia
[29] = test system: A498 renal
[30] = test system: SW-620 colon
[31] = test system: SK-MEL-5 melanoma
[32] = test system: SK-MEL-28 melanoma
[33] = test system: OVCAR-4 ovarian
[34] = test system: SF-268 CNS
[35] = test system: DMS 273 small cell lung
[36] = test system: OVCAR-8 ovarian
[37] = test system: HCC-2998 colon
[38] = test system: 786-0 renal
[39] = test system: UO-31 renal
[40] = test system: SNB-19 CNS
[41] = test system: MOLT-4 leukemia
[42] = test system: LXFL 529 NSCLC
[43] = test system: SF-295 CNS
[44] = test system: KM20L2 colon
[45] = test system: HOP-18 NSCLC
[46] = test system: K-562 leukemia
[47] = test system: M19-MEL melanoma
[48] = test system: SR leukemia
[49] = test system: HCT-15 colon
[50] = test system: KM12 colon
[51] = test system: NCI-H522 lung
[52] = test system: SF-539 CNS
[53] = test system: BT-549 breast
[54] = test system: MDA-MB-435
[55] = test system: T-47D breast
[56] = test system: DU-145 prostate
[57] = test system: MDA-N
[58] = test system: RXF 393 renal
[59] = test system: SNB-75 CNS
[60] = test system: SK-MEL-2 melanoma
[61] = test system: PC-3 prostate
[62] = test system: EKVX NSCLC
[63] = test system: MCF7 breast
[64] = test system: HS 578T breast
[65] = test system: NCI/ADR-RES ovarian
[66] = test system: MDA-MB-231 breast

Structure (SMILES): Cc1ccc(S(=O)(=O)OCC23CCC(C2)C2CC23)cc1 (stereo not drawn)
- TGI [1]: > 100 µM
- TGI [2]: > 100 µM
- TGI [3]: > 100 µM
- TGI [4]: > 100 µM
- TGI [5]: > 100 µM
- TGI [6]: > 100 µM
- TGI [7]: > 100 µM
- TGI [8]: > 100 µM
- TGI [9]: > 100 µM
- TGI [10]: > 100 µM
- TGI [11]: > 100 µM
- TGI [12]: > 100 µM
- TGI [13]: > 100 µM
- TGI [14]: > 100 µM
- TGI [15]: > 100 µM
- TGI [16]: > 100 µM
- TGI [17]: > 100 µM
- TGI [18]: > 100 µM
- TGI [19]: > 100 µM
- TGI [20]: > 100 µM
- TGI [21]: > 100 µM
- TGI [22]: 94.8 µM
- TGI [23]: > 100 µM
- TGI [24]: > 100 µM
- TGI [25]: > 100 µM
- TGI [26]: > 100 µM
- TGI [27]: > 100 µM
- TGI [28]: 98.8 µM
- TGI [29]: > 100 µM
- TGI [30]: > 100 µM
- TGI [31]: > 100 µM
- TGI [32]: > 100 µM
- TGI [33]: > 100 µM
- TGI [34]: > 100 µM
- TGI [35]: > 100 µM
- TGI [36]: > 100 µM
- TGI [37]: > 100 µM
- TGI [38]: > 100 µM
- TGI [39]: > 100 µM
- TGI [40]: > 100 µM
- TGI [41]: > 100 µM
- TGI [42]: > 100 µM
- TGI [43]: > 100 µM
- TGI [44]: > 100 µM
- TGI [45]: > 100 µM
- TGI [46]: > 100 µM
- TGI [47]: > 100 µM
- TGI [48]: > 100 µM
- TGI [49]: > 100 µM

Structure (SMILES): Cn1c(=O)c2[nH]c(CCCCc3nc4ccccc4[nH]3)nc2n(C)c1=O
- TGI [50]: > 100 µM
- TGI [1]: > 100 µM
- TGI [2]: > 100 µM
- TGI [3]: > 100 µM
- TGI [51]: > 100 µM
- TGI [4]: > 100 µM
- TGI [5]: > 100 µM
- TGI [6]: > 100 µM
- TGI [7]: > 100 µM
- TGI [8]: > 100 µM
- TGI [9]: > 100 µM
- TGI [10]: > 100 µM
- TGI [11]: > 100 µM
- TGI [52]: > 100 µM
- TGI [53]: > 100 µM
- TGI [13]: > 100 µM
- TGI [14]: > 100 µM
- TGI [15]: > 100 µM
- TGI [54]: > 100 µM
- TGI [16]: > 100 µM
- TGI [17]: > 100 µM
- TGI [18]: > 100 µM
- TGI [55]: > 100 µM
- TGI [56]: > 100 µM
- TGI [19]: > 100 µM
- TGI [20]: > 100 µM
- TGI [57]: > 100 µM
- TGI [21]: > 100 µM
- TGI [58]: > 100 µM
- TGI [59]: > 100 µM
- TGI [22]: 95.8 µM
- TGI [24]: > 100 µM
- TGI [25]: > 100 µM
- TGI [26]: > 100 µM
- TGI [27]: > 100 µM
- TGI [28]: > 100 µM
- TGI [29]: > 100 µM
- TGI [30]: > 100 µM
- TGI [31]: > 100 µM
- TGI [32]: > 100 µM
- TGI [33]: > 100 µM
- TGI [60]: > 100 µM
- TGI [61]: > 100 µM
- TGI [34]: > 100 µM
- TGI [36]: > 100 µM
- TGI [37]: > 100 µM
- TGI [38]: > 100 µM
- TGI [62]: > 100 µM
- TGI [39]: > 100 µM
- TGI [40]: > 100 µM
- TGI [41]: > 100 µM
- TGI [63]: > 100 µM
- TGI [64]: > 100 µM
- TGI [43]: > 100 µM
- TGI [46]: > 100 µM
- TGI [48]: > 100 µM
- TGI [65]: > 100 µM
- TGI [66]: > 100 µM
- TGI [49]: > 100 µM
